This is an account of results in patent US7915292B2, “Antibacterial quinoline derivatives” (Janssen Pharmaceutica NV, priority 2005, dated 2011).

For the first assay, the system named is M. Smegmatis ATCC607. Nature of the assay: In-vitro anti-bacterial activity against strain M. smegmatis ATCC607 (Alamar Blue growth inhibition). Format: cell-based. Particulars: 48 hours incubation. The protocol:
Serial five-fold dilutions (45 μl in 180 μl) were made directly in the microtiter plates from column 2 to 11 using a customised robot system (Zymark Corp., Hopkinton, Mass.). Pipette tips were changed after every 3 dilutions to minimize pipetting errors with high hydrophobic compounds. Untreated control samples with (column 1) and without (column 12) inoculum were included in each microtiter plate. Approximately 250 CFU per well of bacteria inoculum, in a volume of 100 μl in 2.8× Mueller-Hinton broth medium, was added to the rows […]. The same volume of broth medium without inoculum was added to column 12 in row A to H. The cultures were incubated at 37° C. for 48 hours in a humidified 5% CO2 atmosphere (incubator with open air valve and continuous ventilation). At the end of incubation, two days after inoculation, the bacterial growth was quantitated fluorometrically. Therefore Alamar Blue (10×) was added to all wells in a volume of 20 μl and plates were incubated for another 2 hours at […] The fluorescence was read in a computer-controlled fluorometer (Cytofluor, Biosearch) at an excitation wavelength of 530 nm and an emission wavelength of 590 nm (gain 30). The percentage growth inhibition achieved by the compounds was calculated according to standard methods and expressed as pIC50 values.
Consider `COc1nc2ccc(Br)cc2cc1C(c1ccccc1)N(C)CCN(C)C` (centres unmarked) [Compound 1], for which the “M. smegmatis pIC50” value was found to be 5.1.

With `COc1nc2ccc(Br)cc2cc1C(c1ccccc1)N(C)CC(=O)N(C)C` (centres unmarked) [Compound 4], the “M. smegmatis pIC50” value came out at 5.1.

Consider `COc1nc2ccc(Br)cc2cc1C(c1ccccc1)N(C)CC(=O)N(C)C(C)C` (centres unmarked) [Compound 5], for which the “M. smegmatis pIC50” value is recorded as 5.1.

For `CCCCN(C)C(=O)CN(C)C(c1ccccc1)c1cc2cc(Br)ccc2nc1OC` (centres unmarked) [Compound 6], the “M. smegmatis pIC50” value was found to be 5.1.

As for `COc1nc2ccc(Br)cc2cc1C(c1ccccc1)N(C)CC(=O)N(C)CC#N` (centres unmarked) [Compound 7], the “M. smegmatis pIC50” value was found to be 4.9.

Regarding `COc1nc2ccc(Br)cc2cc1C(c1ccccc1)N(C)CC(=O)N(C)CCN(C)C` (centres unmarked) [Compound 8], the “M. smegmatis pIC50” value was found to be 5.1.

Consider `COc1nc2ccc(Br)cc2cc1C(c1ccccc1)N(C)CC(=O)N(C)CCCN(C)C` (centres unmarked) [Compound 9], for which the “M. smegmatis pIC50” value is 5.

Turning to `COc1nc2ccc(Br)cc2cc1C(c1ccccc1)N(C)CC(=O)N(C)c1ccccc1C` (centres unmarked) [Compound 10], the “M. smegmatis pIC50” value is 4.7.

Regarding `CCN(Cc1ccncc1)C(=O)CN(C)C(c1ccccc1)c1cc2cc(Br)ccc2nc1OC` (centres unmarked) [Compound 12], the “M. smegmatis pIC50” value is on record as 5.1.

For the compound `COCCN(CCOC)C(=O)CN(C)C(c1ccccc1)c1cc2cc(Br)ccc2nc1OC` (centres unmarked) [Compound 13], the “M. smegmatis pIC50” value came out at 4.6.

With `COc1nc2ccc(Br)cc2cc1C(c1ccccc1)N(C)CC(=O)N(CCC#N)Cc1cccnc1` (centres unmarked) [Compound 14], the “M. smegmatis pIC50” value turned out to be 5.2.

Take `COc1nc2ccc(Br)cc2c(Cl)c1C(c1ccccc1)N(C)CC(=O)N(C)C` (centres unmarked) [Compound 15]: the “M. smegmatis pIC50” value is 4.8.

With `COc1nc2ccc(Br)cc2cc1C(c1ccccc1)N(CC(=O)N(C)C)Cc1ccccc1` (centres unmarked) [Compound 24], the “M. smegmatis pIC50” value is recorded as 5.1.

As to `COc1nc2ccc(Br)cc2cc1C(c1ccccc1)N(CC(=O)N(C)C)Cc1cccc2ncccc12` (centres unmarked) [Compound 25], the “M. smegmatis pIC50” value came to 5.4.

As for `COc1nc2ccc(Br)cc2cc1C(c1ccccc1)N(CC(=O)N(C)C)Cc1ccnc2ccccc12` (centres unmarked) [Compound 26], the “M. smegmatis pIC50” value came to 5.7.

Regarding `COc1nc2ccc(Br)cc2cc1C(c1ccccc1)N(C)CCCN(C)C` (centres unmarked) [Compound 27], the “M. smegmatis pIC50” value came out at 5.5.

On to `COc1nc2ccc(Br)cc2cc1C(c1ccccc1)N(CCCN(C)C)CCCN(C)C` (centres unmarked) [Compound 28], for which the “M. smegmatis pIC50” value turned out to be 5.1.

Take `CN(C)C(=O)CN(Cc1ccccc1)C(c1ccccc1)c1cc2ccccc2nc1-c1ccccc1` (centres unmarked) [Compound 32]: the “M. smegmatis pIC50” value came to 5.7.

Take `CC(C)N(C)C(=O)CN(Cc1ccccc1)C(c1ccccc1)c1cc2ccccc2nc1-c1ccccc1` (centres unmarked) [Compound 33]: the “M. smegmatis pIC50” value is 6.5.

For `CN(C)C(=O)CN(Cc1ccccc1)C(c1cc2ccccc2o1)c1cc2ccccc2nc1-c1ccccc1` (centres unmarked) [Compound 35], the “M. smegmatis pIC50” value was 5.6.

As to `CNC(=O)CN(C)C(c1ccccc1)c1cc2cc(C)ccc2nc1-c1ccccc1` (centres unmarked) [Compound 38], the “M. smegmatis pIC50” value worked out at 4.5.

`Cc1ccc2nc(-c3ccccc3)c(C(c3ccccc3)N(C)CC(=O)N(C)C)cc2c1` (centres unmarked) [Compound 39]: the “M. smegmatis pIC50” value is 4.5.

For `CNC(=O)CN(Cc1ccccc1)C(c1ccccc1)c1cc2cc(C)ccc2nc1-c1ccccc1` (centres unmarked) [Compound 40], the “M. smegmatis pIC50” value came out at 5.6.

Take `Cc1ccc2nc(-c3ccccc3)c(C(c3ccccc3)N(CC(=O)NCC3CC3)Cc3ccccc3)cc2c1` (centres unmarked) [Compound 42]: the “M. smegmatis pIC50” value turned out to be 5.8.

For `Cc1ccc2nc(-c3ccccc3)c(C(c3ccccc3)N(CC(=O)NC3CCCCC3)Cc3ccccc3)cc2c1` (centres unmarked) [Compound 43], the “M. smegmatis pIC50” value is on record as 5.2.

In the case of `Cc1ccc2nc(-c3ccccc3)c(C(c3ccccc3)N(CC(=O)NN3CCOCC3)Cc3ccccc3)cc2c1` (centres unmarked) [Compound 44], the “M. smegmatis pIC50” value is listed as 5.1.

For `COCCN(CCOC)C(=O)CN(Cc1ccccc1)C(c1ccccc1)c1cc2cc(C)ccc2nc1-c1ccccc1` (centres unmarked) [Compound 50], the “M. smegmatis pIC50” value stood at 5.8.

As for `O=C(CN(Cc1ccccc1)C(c1cccnc1)c1cc2ccccc2nc1-c1ccccc1)N1CCSCC1` (centres unmarked) [Compound 56], the “M. smegmatis pIC50” value was 5.8.

As to `O=C(CN(Cc1ccccc1)C(c1cc2ccccc2o1)c1cc2ccccc2nc1-c1ccccc1)N1CCCC1` (centres unmarked) [Compound 57], the “M. smegmatis pIC50” value came out at 5.9.

Take `O=C(CN(Cc1ccccc1)C(c1cc2ccccc2o1)c1cc2ccccc2nc1-c1ccccc1)N1CCSCC1` (centres unmarked) [Compound 58]: the “M. smegmatis pIC50” value is on record as 6.1.

Take `COc1nc2ccc(C)cc2cc1C(c1ccccc1)N(CCC(=O)N1CCOCC1)Cc1ccccc1` (centres unmarked) [Compound 60]: the “M. smegmatis pIC50” value came to 5.3.

In the case of `Cc1ccc2nc(-c3ccccc3)c(C(c3ccccc3)N(C)CC(=O)N3CCN(C)CC3)cc2c1` (centres unmarked) [Compound 62], the “M. smegmatis pIC50” value came out at 5.1.

`Cc1ccc2nc(-c3ccccc3)c(C(c3ccccc3)N(C)CC(=O)N3CCOCC3)cc2c1` (centres unmarked) [Compound 63]: the “M. smegmatis pIC50” value amounted to 5.1.

For `COc1nc2ccc(Br)cc2cc1C(c1ccccc1)N(C)CC(=O)N1CCCC1` (centres unmarked) [Compound 80], the “M. smegmatis pIC50” value turned out to be 5.1.

Turning to `COc1nc2ccc(Br)cc2cc1C(c1ccccc1)N(C)CC(=O)N1CCSC1` (centres unmarked) [Compound 81], the “M. smegmatis pIC50” value is given as 5.

With `COc1nc2ccc(Br)cc2cc1C(c1ccccc1)N(C)CC(=O)N1CCCCC1` (centres unmarked) [Compound 82], the “M. smegmatis pIC50” value came out at 4.4.

In the case of `COc1nc2ccc(Br)cc2cc1C(c1ccccc1)N(C)CC(=O)N1CCCN(C)CC1` (centres unmarked) [Compound 84], the “M. smegmatis pIC50” value came out at 5.1.

Take `COc1nc2ccc(Br)cc2cc1C(c1ccccc1)N(C)CC(=O)N1CC=CCC1` (centres unmarked) [Compound 85]: the “M. smegmatis pIC50” value was determined as 5.1.

Turning to `COc1nc2ccc(Br)cc2cc1C(c1ccccc1)N(C)CC(=O)N1CCOCC1` (centres unmarked) [Compound 86], the “M. smegmatis pIC50” value was found to be 4.9.

Regarding `COc1nc2ccc(Br)cc2cc1C(c1ccccc1)N(C)CC(=O)N1CC(C)OC(C)C1` (centres unmarked) [Compound 87], the “M. smegmatis pIC50” value amounted to 5.1.

`COc1nc2ccc(Br)cc2cc1C(c1ccccc1)N(C)CC(=O)N1CCN(C)CC1` (centres unmarked) [Compound 89]: the “M. smegmatis pIC50” value worked out at 5.

Take `COc1nc2ccc(Br)cc2cc1C(c1ccccc1)N(C)CC(=O)N1CCN(Cc2ccccc2)CC1` (centres unmarked) [Compound 91]: the “M. smegmatis pIC50” value is reported as 4.1.

On to `COc1nc2ccc(Br)cc2cc1C(c1ccccc1)N(C)CC(=O)N1CCN(c2ccccn2)CC1` (centres unmarked) [Compound 92], for which the “M. smegmatis pIC50” value came out at 5.1.

On to `COc1nc2ccc(Br)cc2cc1C(c1ccccc1)N(C)CC(=O)N1Cc2ccccc2C1` (centres unmarked) [Compound 95], for which the “M. smegmatis pIC50” value is listed as 4.9.

Consider `COc1nc2ccc(Br)cc2c(Cl)c1C(c1ccccc1)N(C)CC(=O)N1CCOCC1` (centres unmarked) [Compound 96], for which the “M. smegmatis pIC50” value is recorded as 5.2.

As to `COc1nc2ccc(Br)cc2cc1C(c1ccccc1)N(CC(=O)N1CCOCC1)C(C)C` (centres unmarked) [Compound 98], the “M. smegmatis pIC50” value is listed as 5.3.

For the compound `COc1nc2ccc(Br)cc2cc1C(c1ccccc1)N(CC(=O)N1CCOCC1)Cc1ccco1` (centres unmarked) [Compound 101], the “M. smegmatis pIC50” value was 4.9.

In the case of `COc1nc2ccc(Br)cc2cc1C(c1ccccc1)N(CC(=O)N1CCOCC1)Cc1ccccn1` (centres unmarked) [Compound 110], the “M. smegmatis pIC50” value was 5.2.

On to `COc1nc2ccc(Br)cc2cc1C(c1ccccc1)N(CC(=O)N1CCSCC1)Cc1ccc2ccccc2n1` (centres unmarked) [Compound 113], for which the “M. smegmatis pIC50” value was 4.5.

With `COc1nc2ccc(Br)cc2cc1C(c1ccccc1)N(CC(=O)N1CCSCC1)Cc1cccc2ncccc12` (centres unmarked) [Compound 115], the “M. smegmatis pIC50” value is given as 4.8.

Regarding `COc1nc2ccc(Br)cc2cc1C(c1ccccc1)N(CC(=O)N1CCOCC1)Cc1cccc2ncccc12` (centres unmarked) [Compound 116], the “M. smegmatis pIC50” value was found to be 5.3.

Turning to `COc1nc2ccc(Br)cc2cc1C(c1ccccc1)N(CC(=O)N1CCSCC1)Cc1ccnc2ccccc12` (centres unmarked) [Compound 117], the “M. smegmatis pIC50” value is given as 4.3.

As to `COc1nc2ccc(Br)cc2cc1C(c1ccccc1)N(CC(=O)N1CCOCC1)Cc1ccnc2ccccc12` (centres unmarked) [Compound 118], the “M. smegmatis pIC50” value stood at 5.6.

Consider `COc1nc2ccc(Br)cc2cc1C(c1ccccc1)N(CC(=O)N1CCN(C)CC1)Cc1ccnc2ccccc12` (centres unmarked) [Compound 119], for which the “M. smegmatis pIC50” value was found to be 5.5.

Take `O=C(CN(Cc1ccccc1)C(c1ccccc1)c1cc2ccccc2nc1-c1ccccc1)N1CCCCC1` (centres unmarked) [Compound 126]: the “M. smegmatis pIC50” value is 6.4.

On to `O=C(CN(Cc1ccccc1)C(c1ccccc1)c1cc2ccccc2nc1-c1ccccc1)N1CCSCC1` (centres unmarked) [Compound 127], for which the “M. smegmatis pIC50” value stood at 6.5.

Staying with this assay, now noted: Mycolicibacterium smegmatis, 48 hours incubation, read-out: M. smegmatis pIC50 (converted).
For `CCN(CC)CCN(C)C(c1ccccc1)c1cc2cc(Br)ccc2nc1OC` (centres unmarked) [Compound 2], the IC50 is 2000 nM.

Take `CC(C)N(C)C(=O)CN(Cc1ccccc1)C(c1ccccc1)c1cc2cc(Br)ccc2nc1Oc1ccccc1` (centres unmarked) [Compound 30]: the IC50 is 631 nM.

On to `CC(C)N(C)C(=O)CN(Cc1ccccc1)C(c1cc2ccccc2o1)c1cc2ccccc2nc1-c1ccccc1` (centres unmarked) [Compound 36], for which the IC50 is 316 nM.

Turning to `Cc1ccc2nc(-c3ccccc3)c(C(c3ccccc3)N(C)CCN(C)C)cc2c1` (centres unmarked) [Compound 37], the IC50 is 20000 nM.

With `COc1nc2ccc(Br)cc2cc1C(c1ccccc1)N(C)CC(=O)N1CCC(C)CC1` (centres unmarked) [Compound 83], the IC50 is 2510 nM.

Consider `CCOC(=O)CN(Cc1ccccc1)C(c1cccnc1)c1cc2ccccc2nc1-c1ccccc1` (centres unmarked) [Compound 129], for which the IC50 is 1580 nM.
